Measured values taken from patent US11104618B2, “Fertilizer composition and methods of making and using same” (SABIC GLOBAL TECHNOLOGIES B.V., priority 2015, dated 2021).

Assays:
[1] = Thermal stability of NBTPT at urea melt temperature by HPLC; assay type: physicochemical
Experimental: The thermal stability of neat NBTPT and NBTPT contained within a core, as disclosed herein, can be determined by HPLC. For example, neat NBTPT or a core containing NBTPT can be exposed to 135° C. (133-135° C. is the typical temperature range of a urea melt) and can continuously be analyzed by HPLC every 5 min, until 30 min on analysis was reached. Such data will determine whether the NBTPT has better thermal stability when contained within a core, as compared to neat NBTPT.
Stability of inhibitors in urea melt: Extrudates containing inhibitors were tested for their stability in urea melt using HPLC and LCMS.

Upland Crowley Soil = assay: Nitrogen loss after 17 days of exposure to soil (IFDC)
Experimental: The nitrogen volatilization was measured in different soils for several samples and compared to products on the market, such as Agrotain®, ESN®, and SuperU®. The samples were tested in Greenville soil, Crowley soil, and Brownfield Soil. Crowley soil consists of very deep, somewhat poorly drained, very slowly permeable soils that formed in clayey fluviomarine deposits of the Pleistocene age. The soil exist in nearly level to very gently sloping soils and occur on flat coastal plains terraces. The slope is dominantly less than 1 percent but ranges to up to 3 percent. The mean annual precipitation is about 1549 mm (61 in), and the mean annual air temperature is about 20 degrees C. (68 degrees F.), where the soil is found. The soil is fine, […], and […].

Compound | thermal stability of neat NBTPT ([1]; neat, exposed to 133-135° C. over time, FIG. 13) | thermal stability of NBTPT within a fertilizer core particle ([1]; within a core exposed to 133-135° C. over time, FIG. 14) | Cumulative Nitrogen Loss (mg) by 17 Days (Upland Crowley Soil; 17 days of exposure to Upland Crowley Soil) | % Urea (Upland Crowley Soil; nitrogen loss relative to urea, 17 days, Upland Crowley Soil) | % Reduction in Nitrogen Loss (Upland Crowley Soil; versus urea, 17 days, Upland Crowley Soil)
CCCCNP(N)(N)=S [NBTPT, N-(n-butyl) thiophosphoric triamide] | decomposes at this temperature over time | stable over time and does not decompose |  |  | 
NC(N)=O [Urea, urea] |  |  | 299.08 mg | 100% | 0%
